This note sets out measurements from patent US8232403B2, “Bicyclic derivatives as CETP inhibitors” (Novartis AG, priority 2006, dated 2012).

Test [1] has as its target T1, CETP (cholesteryl ester transfer protein) (Homo sapiens, UniProt P11597).
T1 sequence (P11597 18-493): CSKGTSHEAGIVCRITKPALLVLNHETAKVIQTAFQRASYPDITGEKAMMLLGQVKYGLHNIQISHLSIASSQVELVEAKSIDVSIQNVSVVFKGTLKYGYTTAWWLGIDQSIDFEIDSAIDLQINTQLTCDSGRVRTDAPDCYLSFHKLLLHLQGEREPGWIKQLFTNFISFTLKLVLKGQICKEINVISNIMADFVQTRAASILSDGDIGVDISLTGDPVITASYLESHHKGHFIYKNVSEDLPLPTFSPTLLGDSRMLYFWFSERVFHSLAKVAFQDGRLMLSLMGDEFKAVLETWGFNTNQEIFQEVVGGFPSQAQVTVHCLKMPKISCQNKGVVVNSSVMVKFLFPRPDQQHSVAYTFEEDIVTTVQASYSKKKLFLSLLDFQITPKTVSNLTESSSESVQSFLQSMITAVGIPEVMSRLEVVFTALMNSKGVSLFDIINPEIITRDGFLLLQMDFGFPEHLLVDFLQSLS
Briefly: In vitro CETP activity assay in human plasma. In kind it is biochemical. More on the design: tissue New Drug Development Research Center, Inc; host or cells: human EDTA plasma from healthy men. From the text:
(1) Preparation of Human Pro-Apolipoprotein Al (pro-apoAl)
The cDNA of human pro-apoAl (NCBI accession number: NM_000039) is cloned from human liver Quick-Clone™ cDNA (Clontech, Calif.) and inserted to a pET28a vector (Novagen, Germany) for bacterial expression. Expressed protein as a fusion protein with 6×His-tag at N-terminus in BL-21 Gold (DE3) (Strategene, Calif.) is purified using HiTrap Chelating (GE Healthcare, Conn.).
(2) Preparation of Donor Microemulsion
Pro-apoAl containing microemulsion as a donor particle is prepared following previous reports (J. Biol. Chem., 280:14918-22). Glyceryl trioleate (62.5 ng, Sigma, Mo.), 3-sn-phosphatidylcholine (583 ng, Wako Pure Chemical Industries, Japan), and cholesteryl BODIPY® FL C12 (250 ng, Invitrogen, Calif.) are dissolved in 1 mL of chloroform. The solution is evaporated, then residual solvent is removed in vacuum for more than 1 hr. The dried lipid mixture is dissolved in 500 μL of the assay buffer (50 mM Tris-HCl (pH7.4) containing 150 mM NaCl and 2 mM EDTA) and sonicated at 50° C. with a microtip (MICROSON™ ULTRASONIC CELL DISRUPTOR, Misonix, Farmingdale, N.Y.) at output power 006 for 2 min. After sonication, the solution is cooled to 40° C., added to 100 μg of human pro-apoAl, and sonicated at output power 004 for 5 min at 40° C. The solution, BODIPY-CE microemulsion as a donor molecule is stored at 4° C. after filtration through a 0.45 μm PVDF filter.
(3) In Vitro CETP Activity Assay in Human Plasma
Human EDTA plasma samples from healthy men are purchased from New Drug Development Research Center, Inc. Donor solution is prepared by a dilution of donor microemulsion with assay buffer. Human plasma (50 μL), assay buffer (35 μL) and test compound dissolved in dimethylsulfoxide (1 μL) are added to each well of 96 well half area black flat bottom plate. The reaction is started by the addition of donor solution (14 μL) into each well. Fluorescence intensities are measured every 30 min at 37° C. with excitation wave length of 485 nm and emission wavelength of 535 nm. The CETP activity (Fl/min) is defined as the changes of fluorescence intensity from 30 to 90 min.

For test [2], the target named is T1, CETP (cholesteryl ester transfer protein). Briefly: CETP inhibitory activity, IC50 in buffer. In kind it is biochemical.

On to `CCN(CC1CCCC1)c1nc2ccccc2cc1CN(Cc1cc(C(F)(F)F)cc(C(F)(F)F)c1)c1nnn(C)n1` [Example 1, N-[(3-{N′-[3,5-bis(trifluoromethyl)benzyl]-N′-(2-methyl-2H-tetrazol-5-yl)amino}methyl)quinolin-2-yl]-N-(cyclopentylmethyl)ethylamine], for which the figures for the IC50 in test [1] and in test [2] were 0.26 µM and 0.16 µM, respectively.

For `CCN(CC1CCCC1)c1nc2cc(C)ccc2cc1CN(Cc1cc(C(F)(F)F)cc(C(F)(F)F)c1)c1nnn(C)n1` [Example 2-6], the values for the IC50 in test [1] and in test [2] were 0.092 µM and 0.028 µM, respectively.

For the compound `CCN(CC1CCCC1)c1nc2cc(OC)ccc2cc1CN(Cc1cc(C(F)(F)F)cc(C(F)(F)F)c1)c1nnn(C)n1` [Example 2-7], the IC50 was determined as 0.075 µM in test [1] and 0.044 µM in test [2].

For `CCN(CC1CCCC1)c1nc2cc(F)c(F)cc2cc1CN(Cc1cc(C(F)(F)F)cc(C(F)(F)F)c1)c1nnn(C)n1` [Example 2-8], the IC50 in test [1] was found to be 0.024 µM; in test [2], 0.04 µM.

Turning to `CCN(CC1CCCC1)c1nc2cc(F)c(F)c(F)c2cc1CN(Cc1cc(C(F)(F)F)cc(C(F)(F)F)c1)c1nnn(C)n1` [Example 2-10], the IC50 in test [1] was determined as 0.037 µM; in test [2] it was 0.036 µM.

As to `CCN(CC1CCCCC1)c1nc2ccc(F)cc2cc1CN(Cc1cc(C(F)(F)F)cc(C(F)(F)F)c1)c1nnn(C)n1` [Example 2-12], the half-maximal inhibitory concentration (IC50) in test [1] was determined as 0.094 µM; in test [2], 0.12 µM.

As to `CCN(CC1CCCCC1)c1nc2cc(F)ccc2cc1CN(Cc1cc(C(F)(F)F)cc(C(F)(F)F)c1)c1nnn(C)n1` [Example 2-13], the 50% inhibitory concentration (IC50) in test [1] was 0.082 µM; in test [2] it was 0.032 µM.

For `CCN(CC1CCCCC1)c1nc2cc(F)c(F)cc2cc1CN(Cc1cc(C(F)(F)F)cc(C(F)(F)F)c1)c1nnn(C)n1` [Example 2-15], the IC50 was found to be 0.062 µM in test [1] and 0.043 µM in test [2].

For `CCOC(=O)C[C@H]1CC[C@H](CN(CC)c2nc3ccccc3cc2CN(Cc2cc(C(F)(F)F)cc(C(F)(F)F)c2)c2nnn(C)n2)CC1` [Example 2-17], the IC50 in test [1] is 0.22 µM; in test [2] it was 0.25 µM.

`CCN(CC1CCOCC1)c1nc2cc(F)c(F)cc2cc1CN(Cc1cc(C(F)(F)F)cc(C(F)(F)F)c1)c1nnn(C)n1` [Example 2-22]: the IC50 turned out to be 0.03 µM in test [1] and 0.16 µM in test [2].

As to `Cn1nnc(N(Cc2cc(C(F)(F)F)cc(C(F)(F)F)c2)Cc2cc3ccc(F)cc3nc2N2CCCC2C2CCCCC2)n1` (stereo not shown) [Example 3-2], the IC50 in test [1] worked out at 0.043 µM; in test [2], 0.039 µM.

Regarding `CCC(CC)[C@H]1CCCN1c1nc2cc(F)c(F)cc2cc1CN(Cc1cc(C(F)(F)F)cc(C(F)(F)F)c1)c1nnn(C)n1` [Example 3-4], the IC50 was determined as 0.062 µM in test [1] and 0.06 µM in test [2].

On to `CCOC[C@H]1CCCN1c1nc2cc(F)ccc2cc1CN(Cc1cc(C(F)(F)F)cc(C(F)(F)F)c1)c1nnn(C)n1` [Example 3-5], for which the IC50 in test [1] worked out at 0.11 µM; in test [2], 0.12 µM.

As to `CCN(CC1CCCC1)c1nc2cc(C#N)ccc2cc1CN(Cc1cc(C(F)(F)F)cc(C(F)(F)F)c1)c1nnn(C)n1` [Example 6, 3-({N-[3,5-bis(trifluoromethyl)benzyl]-N-(2-methyl-2H-tetrazol-5-yl)amino}methyl)-2-[N′-(cyclopentylmethyl)-N′-ethylamino]quinoline-7-carbonitrile], the IC50 in test [1] came to 0.039 µM; in test [2], 0.054 µM.

For `CCN(CC1CCCC1)c1nc2cc(F)cc(F)c2cc1CN(Cc1cc(C(F)(F)F)cc(C(F)(F)F)c1)c1ncc(N2CCOCC2)cn1` [Example 13-4], the 50% inhibitory concentration (IC50) in test [1] was 0.033 µM; in test [2] it was 0.0058 µM.

Regarding `Cn1nnc(N(Cc2cc(C(F)(F)F)cc(C(F)(F)F)c2)Cc2cc3cc(F)c(F)cc3nc2N2CCC[C@@H]2[C@H]2CC[C@H](C(=O)O)CC2)n1` [Example 21, trans-4-{(R)-1-[3-({N-[3,5-bis(trifluoromethyl)benzyl]-N-(2-methyl-2H-tetrazol-5-yl)amino}methyl)-6,7-difluoroquinolin-2-yl]pyrrolidin-2-yl}cyclohexanecarboxylic acid], the figures for the IC50 in test [1] and in test [2] were 0.045 µM and 0.021 µM, respectively.

In the case of `Cn1nnc(N(Cc2cc(C(F)(F)F)cc(C(F)(F)F)c2)Cc2cc3cc(F)c(F)cc3nc2N2CCC[C@@H]2[C@H]2CC[C@H](CC(=O)O)CC2)n1` [Example 28, trans-(4-{(R)-1-[3-({N-[3,5-bis(trifluoromethyl)benzyl]-N-(2-methyl-2H-tetrazol-5-yl)amino}methyl)-6,7-difluoroquinolin-2-yl]pyrrolidin-2-yl}cyclohexyl)acetic acid], the IC50 was determined as 0.039 µM in test [1] and 0.025 µM in test [2].

What is called IC50 is the concentration needed to halve the response being measured. Higher therefore signals lower potency.
